Measured values as given in US20160274087A1, “SCREENING ASSAY FOR AGENTS THAT INFLUENCE BETA CELL NUMBER AND/OR PHENOTYPE” (VRIJE UNIVERSITEIT BRUSSEL, priority 2013, published 2016).

How the values were obtained:
rat beta cells [1] = test: Beta cell DNA synthesis/proliferation by EdU (and BrdU) incorporation, incl. LOPAC screen; format: cell-based
Outline: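 Sorted beta cells on 804G matrix were cultured at 37° C in Ham F10 with 50 μM IBMX and 10 mM glucose. In the LOPAC screen, compounds were added on day 1, with EdU (10 μM) from days 3–6. Imaged % EdU-positive cells defined hits at a Z-score above three SD.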

rat beta cells [2] = test: Beta cell viability / cell death (propidium iodide assay); format: cell-based; details: LOPAC screen at 1 μM; adult rat beta cells; day 6; control medium 97
Source text: Numbers of living beta cells were obtained by subtracting the PI-positive cell numbers from the Ho-positive cell numbers, and correcting for the percent insulin-negative cells, as determined following insulin-immunofluorescence staining. They were expressed as percent of the numbers on day 1. […] To detect beta cells that underwent two successive cycles, cells were sequentially exposed to two different thymidine-analogs, first EdU from day 3 to 6, and then BrdU (100 μmol/l) from day 7 to 10, with a 24-hour label-free period in between. EdU-positive (EdU^+) nuclei were detected with the Click-iT Assay kit (Invitrogen), while BrdU-positive (BrdU^+) nuclei were identified with anti-BrdU antibody.
Absolute number of cells was determined by whole-well imaging using the BD-PathwayBioimager855 (BD-Biosciences). IPLab and AttoVision software packages (BD-Biosciences) were used for image background subtraction, segmentation and quantification.
Freshly purified beta cells were cultured in control medium for 24 h prior to the addition of the LOPAC test compounds (day 1). The culture medium was refreshed on day 3 and the cells were then cultured further with 5-ethynyl-2′-deoxyuridine (EdU; 10 μM) up to day 6. […] Thus, a compound is considered a hit only if it increases the percent EdU incorporation to above three standard deviation of the plate-averaged percent EdU incorporation.

alpha cells = test: Alpha cell numbers in cultured dissociated rat islet cells; format: cell-based; details: HC-containing medium; control 40±3%
Source text: We next tested cell type-specificity of HC-induced proliferation by using dissociated rat islet cells containing 15-20% alpha cells and 10-15% other cell types. […] Non-endocrine pancreatic cells were virtually undetectable on day 15, presumably died out due to the serum-free culture conditions.

INS1 832/13 cell line = test: Proliferation of INS1 832/13 cell line in serum-free medium; format: cell-based; details: serum-free culture medium; data not shown
[3] = molecular target: T1, glucocorticoid receptor (GR) (Homo sapiens, UniProt P04150); details: cited from earlier work
T1 sequence (P04150 1-777): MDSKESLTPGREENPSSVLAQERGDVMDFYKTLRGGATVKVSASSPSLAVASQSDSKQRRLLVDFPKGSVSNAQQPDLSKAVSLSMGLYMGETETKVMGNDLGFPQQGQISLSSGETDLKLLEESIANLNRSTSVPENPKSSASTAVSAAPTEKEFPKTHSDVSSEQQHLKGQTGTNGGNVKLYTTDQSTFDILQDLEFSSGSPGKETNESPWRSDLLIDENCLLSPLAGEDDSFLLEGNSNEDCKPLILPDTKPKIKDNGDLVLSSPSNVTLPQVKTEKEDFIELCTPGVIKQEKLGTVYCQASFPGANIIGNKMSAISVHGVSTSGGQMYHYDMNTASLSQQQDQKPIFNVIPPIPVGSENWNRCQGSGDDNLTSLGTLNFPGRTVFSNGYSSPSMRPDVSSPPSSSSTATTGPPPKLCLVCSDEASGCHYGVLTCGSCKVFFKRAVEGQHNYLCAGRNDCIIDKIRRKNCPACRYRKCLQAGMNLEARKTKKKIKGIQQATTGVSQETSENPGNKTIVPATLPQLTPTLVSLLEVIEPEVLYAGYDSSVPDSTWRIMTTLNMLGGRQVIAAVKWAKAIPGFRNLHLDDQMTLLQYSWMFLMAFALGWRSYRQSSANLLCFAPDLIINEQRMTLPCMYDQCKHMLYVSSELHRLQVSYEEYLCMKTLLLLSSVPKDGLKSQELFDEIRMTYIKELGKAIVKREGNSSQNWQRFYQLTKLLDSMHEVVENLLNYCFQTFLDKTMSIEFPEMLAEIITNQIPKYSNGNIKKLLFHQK

Structure (SMILES): C[C@]12CCC(=O)C=C1CC[C@@H]1[C@@H]2[C@@H](O)C[C@@]2(C)[C@H]1CC[C@]2(O)C(=O)CO [Hydrocortisone, hydrocortisone]
- Percent EdU+ cells (rat beta cells [1]; LOPAC screen at 1 μM, adult rat beta cells, EdU day 3 to 6, control medium 5.6): 28.0%
- Z-Score (rat beta cells [1]; LOPAC screen at 1 μM, adult rat beta cells, EdU day 3 to 6, hit cut-off three standard deviations): 5.4
- final concentration of optimal potency (dose-response studies) (rat beta cells [1]; survival and proliferation of rat beta cells, data not shown): 1 µM
- Percent viable cells (rat beta cells [2]): 97%
- alpha cell numbers after 15-day culture (% of the starting level) (alpha cells): 57±1%
- proliferation of INS1 832/13 cell line (INS1 832/13 cell line): does not induce the proliferation
- Relative Potencies GR [3]: 1
